Assays:
A. fumigatus conidia = experiment: Resazurin-based fungal viability assay; parameters: species or system Aspergillus fumigatus; settings: for microbicidal activity: 1 min, conidia pre-opsonised with human SAP
Experimental: FIG. 12 depicts the therapeutic efficacy of SAP in treatment of invasive aspergillosis. a) b) c) survival of transiently immunosuppressed wt mice after injection with the indicated doses of AF conidia. The curve of untreated mice (n=3) with cyclophosphamide is also shown (a). Human SAP (4 mg/Kg) was injected at 2 h and 24 h after infection. a) AF 5.10^7, n=17; AF 5.10^7+SAP, n=15; b) AF 1.10^7, n=7; AF 1.10^7+SAP, n=8; c) AF 5.10^6, n=8; AF 5.10^6+SAP, n=10.***, P<0.005 SAP-treated vs. saline (Mantel-Cox test). One-way ANOVA, P<0.0001. d) lung CFU in mice treated with cyclophosphamide and infected with 1.10^7 AF conidia.*, P<0.05 (Mann-Whitney test). e) quantitative analysis of AF viability performed using a resazurin-based assay. Plasma (30%) from wt and Apcs^−/− mice were incubated (1 min) with 1.5×10^5 AF conidia pre-opsonized or not with SAP. Results are mean±SD of red fluorescence (excitation/emission 535/580-610 nm) intensity of the resazurin once reduced to resorufin within viable cells. Effect of Posaconazole (POC; 1 μM) exposure is also shown. Results are mean±SEM relative to the condition without serum (grey symbols) of two experiments performed with n=10 mice/group. […] AF viability assay performed in sera depleted from complement components. Figure summarizes one experiment out of 5 also conducted with serum 10%. Mean±SD.*, P<0.05; **, P<0.01 (unpaired t-test). g) and h) FACS analysis of MAC deposition on AF conidia (1×10^7) in presence of sera depleted from complement components (e) and the effect of SAP (f). Mean±SEM of 2 experiments performed out of 4. e, f,*, P<0.05;**, P<0.01;***, P<0.005;****, P<0.001; (Mann-Whitney test).
Fungal viability assay. Effect of SAP on A. fumigatus killing was evaluated by a resazurin-based cell viability assay as described (Mantovani et al., 2010). A volume of 10 μl PBS, pH 7.4, containing 1.5×10^5 conidia eventually opsonized with human SAP (100 μg/ml per 1×10^9 conidia, 1 h at r.t.) was placed into sterile round bottom Corning® 96-well polypropylene microplate and incubated for 1 and 30 min at 37° C. with 20 μl of 10 and 30% plasma-heparin from wt and Apcs^−/− mice or human serum and different complement component-depleted sera. After incubation, plates were immediately cooled on ice and cold-centrifuged (2000 rpm, 10 min at 4° C.), and then supernatant removed. Conidia not incubated with plasma or serum were used as a negative control. Conidia treated with the fungicide drug Posaconazole (POC; 1 μM) were considered as positive control in the assay. […] After 17 h reaction at 37° C., fluorescence (excitation/emission at ≈530-560/590 nm) intensity was measured by microplate reader Synergy™ H4 (BioTek, France). Results represent ratio of fluorescence intensity values relative to those measured in negative controls. […]

A. fumigatus = experiment: Rescue experiment: survival after i.t. injection of Sap-opsonised A. fumigatus conidia; assay type: in vivo, mice; settings: 5×10^7 i.t.
Experimental: FIG. 5 depicts the rescue of susceptibility to A. fumigatus in SAP-deficient mice. a) b) c) d) i.t. injection of non-opsonised or Sap-opsonised AF conidia. a) survival of wt and Apcs^−/− mice. Wt, n=10; wt+Sap, n=10; Apcs^−/−, n=14; Apcs^−/−+Sap, n=13.****, P<0.0001, wt vs. Apcs^−/− or Apcs^−/− vs. Apcs^−/−+Sap (Mantel-Cox test). b) and c) levels of TNF-α (b) and MPO (c) in BALFs of mice (16 h). b),****, P<0.0001;**, P<0.01. c),***, P<0.0005. d, FACS analysis of neutrophil recruitment in lung (16 h). Mean±SEM.****, P<0.0001;*, P<0.05. b), c), d), Mean±SEM; Mann-Whitney test.
The growth and culture conditions of A. fumigatus and A. Flavus conidia were as described (Garlanda et al., 2002). For intratracheal (i.t.) injection, mice were anesthetized by i.p. injection of ketamine (100 mg/Kg; i.p.) and xylazine (10 mg/Kg i.p.). After surgical exposure, a volume of 50 μl PBS^2+, pH 7.4, containing 1×10^8 or 5×10^7 resting conidia (>95% viable, as determined by serial dilution and plating of the inoculum on Sabouraud dextrose agar) were delivered into trachea under direct vision using a catheter connected to the outlet of a micro-syringe (Terumo, Belgium). Survival to infection was daily monitored for 10d later. Dying mice were euthanized after evaluation of the following clinical parameters: body temperature dropping, intermittent respiration, solitude presence, sphere posture, fur erection, non-responsive alertness, and inability to ascent when induced.
In experiments of in vivo phagocytosis, mice were i.t. injected with 5×10^7 heat inactivated fluorescein isothiocyanate (FITC)-labelled conidia and euthanized 4 h later. In rescue experiments, conidia (1×10^9) were opsonized with murine recombinant SAP (50 μg/ml; R&D Systems) for 1 h at r.t. in PBS, pH 7.4, containing 0.01% (vol/vol) Tween-20® (Merck-Millipore). After washing of unbound protein, a volume of 50 μl (5×10^7 conidia) was i.t. injected.

human native SAP: Native SAP from human serum purchased by Merck-Millipore; Serum Amyloid P component, SEQ ID NO: 1
microbicidal activity (A. fumigatus conidia; Apcs−/− mouse plasma): increase of microbicidal activity
SAP effect on microbicidal activity (A. fumigatus conidia; human serum depleted of C1q): abolished
SAP effect on microbicidal activity (A. fumigatus conidia; human serum depleted of C3): abolished
microbicidal activity (A. fumigatus conidia; wt mouse plasma): increase of microbicidal activity

B1: recombinant murine SAP: recombinant murine SAP from mouse myeloma cell line NSO (R&D Systems) (protein, UniProt P12246 21-224, looked up)
Serum amyloid P-component: QTDLKRKVFVFPRESETDHVKLIPHLEKPLQNFTLCFRTYSDLSRSQSLFSYSVKGRDNELLIYKEKVGEYSLYIGQSKVTVRGMEEYLSPVHLCTTWESSSGIVEFWVNGKPWVKKSLQREYTVKAPPSIVLGQEQDNYGGGFQRSQSFVGEFSDLYMWDYVLTPQDILFVYRDSPVNPNILNWQALNYEINGYVVIRPRVWD
MST (A. fumigatus; Apcs−/− mice): > 10 days
mice that resisted infection (survival) (A. fumigatus; Apcs−/− mice): 69%
MST (A. fumigatus; wt mice): > 10
survival (A. fumigatus; wt mice): 70%
